What was measured:
[1] = system: murine colorectal cancer C38; assay: tumour growth in mice with colorectal cancer C38 treated with 5-fluorouracil (1a); type: in vivo, Mice of C57BL/6 strain; conditions: for TGI / Tumours MEAN ± SD: C38, 28 day of experiment; for Tumours MEAN ± SD: 5-FU 150 mg/kg i.p., PRI-2191 2 ug/kg s.c., PRI-2205 10 μg/kg s.c.; for volume of tumours C38 in comparison with control: single agent; for volume of tumours C38, combination with 5-FU in comparison with 5-FU: analogue combined with 5-FU
[2] = system: murine colorectal cancer C38; assay: survival time and tumour growth in mice with colorectal cancer C38 treated with 5-FU (1b); type: in vivo; conditions: for ILS %: 5-FU 75 mg/kg i.p. day 1, PRI-2191 2, PRI-2205 10 μg/kg/day 3 times per week; for TGI (d20) %: day 20; for C38 tumour mass in comparison with control: single agent; for C38 tumour mass, combination with 5-FU in comparison with 5-FU: analogue combined with 5-FU
Experimental: Mice with colorectal cancer C38 were treated with 5-FU given in a single administration, intraperitoneally on day 1 at a dose of 75 mg/kg.

colorectal cancer HT-29 = assay: tumour growth in mice with colorectal cancer HT-29 treated with 5-fluorouracil; type: in vivo; conditions: for TGI / Tumours MEAN ± SD: HT-29, 49 day of experiment; for HT-29 tumour mass in comparison with control: single agent; for HT-29 tumour mass, combination with 5-FU in comparison with 5-FU alone / type of interaction in inhibition of HT-29 tumour growth: analogue combined with 5-FU
HT-29 = assay: antiproliferative activity of 5-fluorouracil combined with vitamin D analogues in vitro, 120 h; type: cell-based, human; parameters: key: +: sub-additive effect; ++: additive effect; +++: synergistic effect; −: antagonism; conditions: analogue 100 nM + 5-fluorouracil 0.1 μg/ml, 120-hours exposure
Experimental: (§1) After 24 h culture, the cells of large intestine carcinoma were treated simultaneously with calcitriol or vitamin D analogues and 5-fluorouracil for 120 hours. The final concentration of vitamin D analogues was 100 nM, and of 5-fluorouracil—-1 μg/ml or 0.1 μg/ml. Statistical analysis of the obtained results of inhibition of proliferation was carried out by analysis of percent of inhibition of proliferation in individual combinations of compounds.
(§2) Hypothetical value was calculated according to a formula: […]
(§3) wherein: % H—hypothetical inhibition of proliferation by combination of compounds [Vo]; % cyt—inhibition of proliferation by 5-Fu alone [%]; % vit—inhibition of proliferation by calcitriol or cholecalciferol analogue alone [%];
(§4) Additive effect occurs when the experimental and hypothetical value are similar, sub-additive effect occurs when experimental value is lower than hypothetical value but above value for a cytostatic alone, and antagonistic action—when a value determined for a cytostatic used alone is above experimental value for combination of both compounds. [Peters G. J. i wsp.: Pharmacol Ther 2000, 87, 227-253]

LoVo = assay: as above; type: cell-based, human; parameters: key: +: sub-additive effect; ++: additive effect; +++: synergistic effect; −: antagonism; conditions: analogue 100 nM + 5-fluorouracil 1 μg/ml, 120-hours exposure
Experimental: as §1, §2, §3, §4

MC38/0 = assay: as above; type: cell-based, mouse; parameters: key: +: sub-additive effect; ++: additive effect; +++: synergistic effect; −: antagonism; conditions: 120-hours exposure
Experimental: as §1, with “The final concentration of vitamin D analogues was 100 nM, and of 5-fluorouracil—-1 μg/ml or 0.1 μg/ml.” left out
as §2, §3, §4

CaCo-2 = assay: as above; type: cell-based, human; parameters: key to Type of reaction between vitamin D analogues and 5-fluorouracil: +: sub-additive effect; ++: additive effect; +++: synergistic effect; −: antagonism; conditions: for Type of reaction between vitamin D analogues and 5-fluorouracil: CaCo-2, analogue 100 nM + 5-fluorouracil 1 μg/ml, 120-hours exposure
Experimental: as §1, §2, §3, §4

[3] = system: murine colorectal carcinoma C38; assay: tumour growth in mice with murine colorectal carcinoma C38 treated with capecitabine; type: in vivo, Mice of C57BL/6 strain; conditions: for TGI / Tumours MEAN ± SD: C38; for tumour C38 mass in comparison with control: single agent; for tumour mass, combination with capecitabine in comparison with capecitabine alone / type of interaction in inhibition of tumour growth with capecitabine: analogue combined with capecitabine
[4] = system: murine colorectal cancer MC38/EGFP; assay: burden of metastases in regional lymph nodes, MC38/EGFP fluorescence (1c); type: in vivo, mice; conditions: for metastases in regional lymph nodes (intensity of fluorescence), combined treatment with 5-FU: 5-FU 75 mg/kg i.p. with PRI-2191 1 μg/kg or PRI-2205 10 μg/kg s.c., day 59; for metastases in regional lymph nodes (fluorescence) versus control mice: analogue only, day 50
From the text: Cancer cells of murine colorectal cancer MC38/EGFP (cells expressing a protein of green fluorescence) were implanted subcutaneously in an amount of 1×10^6 cells/mouse. […] Compounds were given subcutaneously, 3 times a week. […] Then on day 59 of experiment, lymph nodes from mice of remaining were taken for analysis. Using NightOWL II LB 983 apparatus, photographs of isolated lymph nodes were taken in order to visualize cancer cells in sites of metastases.
Intensity of the measured fluorescence is related to a burden of metastases (the number of cells with fluorescence).

[5] = calcium level in blood serum of mice treated with 5-FU and vitamin D analogues; type: in vivo, Mice of BALB/c strain; conditions: BALB/c; 5-FU 50 mg/kg i.p. day 1; PRI-2191 2 or PRI-2205 10 μg/kg/day 3 times a week
Experimental: Mice of BALB/c strain were treated with 5-FU given in a single administration, intraperitoneally on day 1 at a dose of 50 mg/kg. […] Calcium level was evaluated (Arsezano 3 method, Olympus AU400; Olympus America Inc., Melville, NY, USA) in blood serum of treated and control mice.

[6] = body mass of mice under combined therapy; type: in vivo; conditions: combination with 5-FU
[7] = rats; cited from earlier work
[8] = MC38/0, analogue 100 nM + 5-fluorouracil 0.1 μg/ml
[9] = analogue 100 nM + 5-fluorouracil 0.01 μg/ml, cell line of this column unclear (MC38/0 or CaCo-2)
[10] = 18 day of experiment, KCY 250 mg/kg/day oral, PRI-2191 1, PRI-2205 10 μg/kg/day s.c.

O=c1[nH]cc(F)c(=O)[nH]1 [5-FU, 5-fluorouracil]
TGI [1]: 84% | Tumours MEAN ± SD [1]: 0.19 ± 0.19 g | volume of tumours C38 in comparison with control [1]: decreases in statistically significant manner volume of tumours C38 in comparison with control | ILS % ([2]; C38): 21% | TGI (d20) % ([2]; C38): 64% | C38 tumour mass in comparison with control [2]: decreases in a statistically significant manner C38 tumour mass in comparison with control | TGI (colorectal cancer HT-29): 47% | Tumours MEAN ± SD (colorectal cancer HT-29): 1.23 ± 0.30 g | HT-29 tumour mass in comparison with control (colorectal cancer HT-29): decreases in a statistically significant manner HT-29 tumour in comparison with control

C=C1/C(=C\C=C2/CCC[C@]3(C)[C@@H]([C@H](C)CCCC(C)(C)O)CC[C@@H]23)C[C@@H](O)C[C@@H]1O [CALCITRIOL, 1,25-dihydroxycholekalciferol]
Type of reaction between vitamin D analogues and 5-fluorouracil (HT-29): +++ | Type of reaction between vitamin D analogues and 5-fluorouracil (LoVo): +++ | Type of reaction between vitamin D analogues and 5-fluorouracil (MC38/0; [8]): +++ | Type of reaction between vitamin D analogues and 5-fluorouracil (MC38/0; [9]): +++ | Type of reaction between vitamin D analogues and 5-fluorouracil (CaCo-2): − | interaction with 5-fluorouracil (CaCo-2; Caco-2 cell line, 120-hour exposure): antagonism

CCCCCOC(=O)Nc1nc(=O)n([C@@H]2O[C@H](C)[C@@H](O)[C@H]2O)cc1F [KCY, capecitabine]
TGI ([3]; 18 day of experiment): 47% | Tumours MEAN ± SD [3, 10]: 0.41 ± 0.33 g | TGI ([3]; 29 day of experiment): 35% | Tumours MEAN ± SD ([3]; 29 day of experiment): 1.65 ± 1.39 g | tumour C38 mass in comparison with control [3]: decreases tumour C38 mass in comparison with control

C=C1/C(=C\C=C2/CCC[C@]3(C)[C@@H]([C@H](C)CC[C@@H](O)C(C)C)CC[C@@H]23)C[C@@H](O)C[C@@H]1O [PRI-2191, 1,24(R)-dihydroxycholekalciferol]
Type of reaction between vitamin D analogues and 5-fluorouracil (HT-29): +++ | Type of reaction between vitamin D analogues and 5-fluorouracil (LoVo): +++ | Type of reaction between vitamin D analogues and 5-fluorouracil (MC38/0; [8]): +++ | Type of reaction between vitamin D analogues and 5-fluorouracil (MC38/0; [9]): +++ | Type of reaction between vitamin D analogues and 5-fluorouracil (CaCo-2): +++ | TGI [1]: 16% | Tumours MEAN ± SD [1]: 0.88 ± 0.49 g | volume of tumours C38, combination with 5-FU in comparison with 5-FU [1]: decreases in statistically significant manner volume of tumours also in comparison with 5-FU | volume of tumours C38 in comparison with control [1]: inhibits 38C tumours growth in the last four measurements | ILS % ([2]; C38): 52% | TGI (d20) % ([2]; C38): 44% | C38 tumour mass, combination with 5-FU in comparison with 5-FU [2]: in a statistically significant manner decreases tumour mass also in comparison with 5-FU | C38 tumour mass in comparison with control [2]: inhibits C38 tumour growth only in two last measurements | metastases in regional lymph nodes (intensity of fluorescence), combined treatment with 5-FU [4]: increased anti-metastatic action | metastases in regional lymph nodes (fluorescence) versus control mice [4]: did not differ significantly | TGI (colorectal cancer HT-29): 16% | Tumours MEAN ± SD (colorectal cancer HT-29): 2.19 ± 1.51 g | HT-29 tumour mass, combination with 5-FU in comparison with 5-FU alone (colorectal cancer HT-29): influences significantly also tumour mass in comparison with 5-FU alone | type of interaction in inhibition of HT-29 tumour growth (colorectal cancer HT-29): synergism | HT-29 tumour mass in comparison with control (colorectal cancer HT-29): did not influence tumour mass | Tumours MEAN ± SD [3, 10]: 0.75 ± 0.32 g | tumour mass, combination with capecitabine in comparison with capecitabine alone [3]: influences significantly tumour mass in comparison with capecitabine alone | type of interaction in inhibition of tumour growth with capecitabine [3]: a synergistic effect is seen mainly in the last days of the experiment | tumour C38 mass in comparison with control [3]: does not influence tumour mass | calcium level in blood serum of mice [5]: calcium level increases in statistically significant degree | body mass of mice treated with 5-FU in combination with vitamin D analogue, versus 5-FU alone [6]: increased loss of body mass

C=C1/C(=C\C=C2/CCC[C@]3(C)[C@@H]([C@H](C)/C=C/[C@@H](O)C4CC4)CC[C@@H]23)C[C@@H](O)C[C@@H]1O [PRI-2201, (1S,3R,5Z,7E,22E,24S)-24-cyclopropyl-9,10-secochola-5,7,10(19),22-tetraeno-1,3,24-triol]
Type of reaction between vitamin D analogues and 5-fluorouracil (HT-29): +++ | Type of reaction between vitamin D analogues and 5-fluorouracil (LoVo): +++ | Type of reaction between vitamin D analogues and 5-fluorouracil (MC38/0; [8]): +++ | Type of reaction between vitamin D analogues and 5-fluorouracil (MC38/0; [9]): +++ | Type of reaction between vitamin D analogues and 5-fluorouracil (CaCo-2): +++ | lesser influence on calcium metabolism than calcitriol [7]: 100-200 fold

C=C1/C(=C/C=C2\CCC[C@]3(C)[C@@H]([C@H](C)/C=C/[C@@H](O)C4CC4)CC[C@@H]23)C[C@@H](O)C[C@@H]1O [PRI-2205, (1S,3R,5E,7E,22E,24S)-24-cyclopropyl-9,10-secochol-5,7,10(19),22-tetraeno-1,3,24-triol]
Type of reaction between vitamin D analogues and 5-fluorouracil (HT-29): +++ | Type of reaction between vitamin D analogues and 5-fluorouracil (LoVo): +++ | Type of reaction between vitamin D analogues and 5-fluorouracil (MC38/0; [8]): +++ | Type of reaction between vitamin D analogues and 5-fluorouracil (MC38/0; [9]): +++ | Type of reaction between vitamin D analogues and 5-fluorouracil (CaCo-2): +++ | TGI [1]: 29% | Tumours MEAN ± SD [1]: 1.06 ± 0.84 g | volume of tumours C38, combination with 5-FU in comparison with 5-FU [1]: decreases in statistically significant manner volume of tumours also in comparison with 5-FU | volume of tumours C38 in comparison with control [1]: inhibits C38 tumours growth from 18 to 28 day of measurement | ILS % ([2]; C38): 2% | influence on survival time of mice treated with 5-FU ([2]; C38, analogue added to 5-FU, p<0.05): prolongs survival of mice treated with 5-FU | ILS Effect ([2]; C38, combination with 5-FU, survival time): synergistic | TGI (d20) % ([2]; C38): 0% | C38 tumour mass, combination with 5-FU in comparison with 5-FU [2]: in a statistically significant manner decreases tumour mass also in comparison with 5-FU | C38 tumour mass in comparison with control [2]: does not influence tumour mass | metastases in regional lymph nodes (intensity of fluorescence), combined treatment with 5-FU [4]: did not influence the metastatic process | metastases in regional lymph nodes (fluorescence) versus control mice [4]: did not differ significantly | TGI (colorectal cancer HT-29): 31% | Tumours MEAN ± SD (colorectal cancer HT-29): 1.88 ± 0.78 g | HT-29 tumour mass, combination with 5-FU in comparison with 5-FU alone (colorectal cancer HT-29): influences significantly also tumour mass in comparison with 5-FU alone | type of interaction in inhibition of HT-29 tumour growth (colorectal cancer HT-29): synergism | HT-29 tumour mass in comparison with control (colorectal cancer HT-29): did not influence tumour mass | Tumours MEAN ± SD [3, 10]: 0.81 ± 0.60 g | tumour mass, combination with capecitabine in comparison with capecitabine alone [3]: influences significantly tumour mass in comparison with capecitabine alone | type of interaction in inhibition of tumour growth with capecitabine [3]: synergism | tumour C38 mass in comparison with control [3]: does not influence tumour mass

— patent US20120101057A1, “COMBINED THERAPY OF COLORECTAL CARCINOMA” (INSTYTUT FARMACEUTYCZNY, priority 2009, published 2012)
